Data set [1] addresses T1, SiR-tag.
T1 construct: 2 + PROSS8 background combined with P57M/F58Y/R60L and G63N/F64K/D65N/M66H; His10-TEV
In words: Fluorescence intensity titration of 20 nM SiR with serial protein dilutions, 50 mM HEPES, 50 mM NaCl, pH 7.3 with BSA, 25 °C, 4 independent measurements. The format is binding. The following applies: read-out: K D (SiR), SiR-tag; SD, n = 4. The source says: 4 Bioluminescent Rho-tag and far-red SiR-tag. A) Schematic representation of direct excitation (left) or bioluminescence (BRET, right) of Rho-tag/TMR. B) AlphaFold2 (AF2) model of RhoLuc (N-Rho-tag^1‑64-GSG-cpNLuc^67/68-GS-Rho-tag^67‑158-C). cpNLuc^67/68 was inserted into the 64/67 site of Rho-tag. Tertiary structures are represented as colored cartoons and surface. The TMR ligand presented as yellow sticks. 3-Methoxyfurimazine (3MF) was modeled into the structure by aligning a crystal structure of NLuc (PDB-ID7SNT) to the AF model and is represented as blue sticks. pLDDT: 93.88. C) Bioluminescence profile of RhoLuc (dark blue, insertion), NLuc-Rho-tag (light blue, terminal fusion), or NLuc (gray). […] The fluorescence emission spectra were recorded upon the addition of Nano-Glo substrate (Promega 1:1000). BRET ratio (in brackets) is given as I 593/I 459. […] The fluorescence emission spectrum of 50 nM dye was recorded in the presence and absence of 20 μM protein. […]
SGCAA medium was used for induction and cells were grown at 30 °C, 250 rpm for 20 h. […] Samples were filtered through 5 mL round-bottom tubes with cell strainer caps (Falcon) and analyzed directly by FACS. […]
PMT voltages were set based on negative controls (no protein expression). Gates were applied for FSC, SSC, and fluorescence; signals >10³ (bilirubin or rhodamine dyes) were considered positive, background ≤10². […]

Another data set concerns the target T2, Rho-tag (Chlorobaculum tepidum, UniProt Q8KFZ1, A66M/D121K/D126E/E36V/E70D/F125Y/F62Y/G107D/G67E/H40T/K51V/M64F/N138A/Q25R/S152V/S33N/S65D/V17Q/V87I).
T2 construct: gene CT0179; His10-TEV, recombinant from E. coli
In words: Fluorescence intensity titration of SiR with serial Rho-tag dilutions, 50 mM HEPES, 50 mM NaCl, pH 7.3 with BSA, 25 °C. The note with it: SD, n = 3. Type of data set: binding.

A short description of data set [2]: Spectral properties: absolute quantum yield, extinction coefficient, brightness. The format is physicochemical. The procedure: Serially fluorophore dilutions (0 – 3 μM) were prepared in activity buffer in presence or absence […]
Measurements were performed in 200 μL volumes in clear-bottom non-binding […]
recorded on the Spark20M microplate reader (Tecan). Following baseline correction, the absorbance was plotted against the dye concentration and the data were fitted linearly. Path […]
(§1) coefficients were calculated via the Lambert-Beer law (Equation 1).
Absolute quantum yields were determined at room temperature using a Hamamatsu Quantaurus-QY spectrometer (C11347 model). Rhodamine dyes (1 μM) were tested with and without excess […]
Samples were prepared in 800 μL glass vials
Quantum yield represent as mean ± standard deviation from three technical replicates. The brightness was thereafter calculated using Equation 5. […]

For data set [3], the system named is SiR-tag. In words: Fluorescence emission increase (FI/FI0) of SiR upon binding to SiR-tag. Type of data set: biochemical. The note with it: 50 nM dye, with vs without 20 μM protein. The procedure:
The thermal stability of Rho-tag variants was assessed using nano differential scanning fluorimetry (nanoDSF) on a Prometheus NT48 (NanoTemper Technologies). Protein samples (100 µM in activity buffer) were subjected to a thermal gradient from 20° C to 95° C at 1 °C / min.
The intrinsic fluorescence ratio (350 / 330 nm) of tryptophan / tyrosine residues was monitored, and the melting temperature (TM) was determined as the inflection point of this ratio curve. Each sample was analyzed in technical duplicate (N=2), and results are reported as mean ± standard […]
Fluorescence emission spectra
To evaluate fluorescence turn-on or quenching (F I/FI0), rhodamine dyes (2 – 50 nM) were incubated with or without excess Rho-tag (20 μM) in activity buffer containing 0.5% BSA (w/v).
Measurements were performed in black 384-well plates (Greiner) using the Spark20M microplate reader (Tecan) in technical replicates.
FI/FI0 was defined as the ratio of fluorescence intensity with protein to that without at the emission […]
recorded on the Spark20M microplate reader (Tecan). Following baseline correction, the absorbance was plotted against the dye concentration and the data were fitted linearly. […]
as §1
Absolute quantum yields were determined at room temperature using a Hamamatsu Quantaurus-QY spectrometer (C11347 model). […]

Where [4] appears, read: with 20 µM Rho-tag (TMR, JF549) or SiR-tag (SiR, JF646).

T2 sequence (Q8KFZ1 entry or part of it with the stated changes): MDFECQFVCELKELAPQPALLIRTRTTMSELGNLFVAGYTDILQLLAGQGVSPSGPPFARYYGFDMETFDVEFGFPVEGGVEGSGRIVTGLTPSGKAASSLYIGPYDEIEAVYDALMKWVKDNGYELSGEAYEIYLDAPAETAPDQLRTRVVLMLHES
Protocol for Rho-tag: electroporation buffer, aliquoted (12 x 50 µL) on ice, and used immediately for electroporation with 1–5 µg DNA precipitated DNA. Cells were transferred to pre-chilled 0.2 cm gap electroporation cuvettes (Bio-Rad), and electroporated using a Gene Pulser Xcell (0.54 kV, 25 µF, infinite resistance, exponential decay). Cells were recovered in 2 mL YPDS at 30 °C, shaking for 1 h and afterwards expanded in 100 mL SDCAA at 30 °C for 2 days.
YSD protein expression, staining and sorting
regions were amplified via KOD PCR reaction using primers containing unique barcodes (NGS adaptor ligation oligos, Eurofins Genomics) analyzed by NGS sequencing (Illumina technology, Eurofins Genomics). The NGS results were analyzed using a custom-build pipeline as described previously. […] Alternatively, plasmid DNA was transformation into E.cloni 10G and single colonies were analyzed by Sanger sequencing (Eurofins). […]
and 1 (fully bound dye). The dissociation constants KD were determined by fitting a single-site […]

In the case of `CN(C)c1ccc2c(c1)[Si](C)(C)c1cc(N(C)C)ccc1C21OC(=O)c2ccccc21` [SiR, silicon rhodamine], the Kd was determined as 0.048 µM on SiR-tag [1] and 6.5 µM on Rho-tag. Also, the “Absolute quantum yield Φ” value in data set [2] (HaloTag7-bound) was determined as 0.546 ± 0.018; in data set [2] (buffer (unbound dye)), 0.562 ± 0.003; in data set [2] (setting [4]), 0.649 ± 0.012. Moreover, the “Brightness ε × Φ” value in data set [2] (HaloTag7-bound) was 068 ± 1 M-1cm-1 × 103; in data set [2] (buffer), 067 ± 2 M-1cm-1 × 103; in data set [2] (setting [4]), 105 ± 1 M-1cm-1 × 103. For the same molecule, the “Extinction coefficient ε” value in data set [2] (HaloTag7-bound) is 125 ± 15 M-1cm-1 × 103; in data set [2] (buffer) it was 120 ± 22 M-1cm-1 × 103; in data set [2] (setting [4]), 162 ± 30 M-1cm-1 × 103. For the same molecule, the “Fluorescence increase FI/FI0 upon binding to SiR-tag” value with SiR-tag [3] is on record as 13 fold.

(Values after PMC12814168, “Fast, Bright, and Reversible Fluorescent Labeling of Rhodamine-Binding Proteins” (Journal of the American Chemical Society, 2025).)
